Laboratory results taken from US20220241255A1, “COMBINATION CONTAINING SGC ACTIVATORS AND MINERALOCORTICOID RECEPTOR ANTAGONISTS” (Bayer Pharma Aktiengesellschaft, priority 2016, published 2022).

What was measured:
[1] = system: L-NAME-treated transgenic renin rat (TGR(mRen2)27); assay: Proteinuria (protein/creatinine quotient in urine) in L-NAME-treated renin transgenic rats; type: in vivo; conditions: for reduction of proteinuria, measured as protein/creatinine quotient in urine: finerenone 10 mg/kg od, compound of the formula (X) 1 mg/kg bid, alone or combined, versus placebo; for Urinary protein/creatinine quotient, % change vs placebo: proteinuria in % reduction from placebo at the end of the study, mean ± SEM, groups and doses per Table 1
Source text: (§1) 3.) L-NAME-treated transgenic renin rat (TGR(mRen2)27)
(§2) The transgenic renin rat ‘TGR(mRen2)27’ is a hypertensive rat line developed by Mullins and Ganten which overexpresses the Ren-2 gene of the mouse. Additional administration of the nitrogen monoxide synthase inhibitor L-NAME induces endothelial dysfunction which increases morbidity and mortality in this model. Unless subjected to life-long antihypertensive therapy, homozygous animals die of secondary complications such as heart and kidney failure or stroke.
(§3) Male TGR(mRen2)27 renin rats aged 10 to 20 weeks are randomized to different pharmacological treatment groups and a placebo group. In addition, the nitrogen monoxide synthase inhibitor L-NAME is administered via the drinking water in a concentration of 30 to 100 mg/l. During the entire experiment, drinking water and feed are available ad libitum to the animals. The substances are administered via the feed or daily by gavage for 4-10 weeks. Animals treated in the same way but receiving either only the solvent or the feed without test substance serve as placebo group. During the experiment, the systolic blood pressure is determined at regular intervals using a tail cuff, and proteinuria and urine electrolyte composition are determined by collecting the urine in metabolic cages. At the end of the experiment, haemodynamic parameters (blood pressure, heart rate, inotropism[dp/dt], relaxation time[tau], maximum left ventricular pressure, left ventricular end-diastolic pressure[LVEDP]) are measured, and the weights of heart, kidney and lung are determined, protein elimination and biomarkers (e.g. ANP, RIA Kit RK 005-24, Phoenix Pharmaceuticals, Inc., USA, cGMP, RIA Kit RE29075, IBL International GmbH, Hamburg, Germany, renin, angiotensin I, RIA Kit CA-1533, DiaSorin S.p.A., Italy, and aldosterone, P2714, DiaSorin S.p.A., Italy) and gene expression of biomarkers by RT/TaqMan PCR following RNA isolation from cardiac and renal tissue are determined.
(§4) Cardiac and cardiovascular disorders as well as renal and cardiorenal disorders are characterized by high patient morbidity and also high mortality. This morbidity and mortality, together with various risk factors such as hypertension, can be reproduced very accurately in the above-described animal model of the L-NAME-treated renin transgenic rat. Therefore, this animal model, for example, was used to investigate MR antagonists such as, for example, finerenone according to the compound of the formula (IV) and sGC activators such as, for example, the compound of the formula (X), and combinations of both: […]
Here, the quotient of protein excreted in the urine and creatinine excreted in the urine, the so-called protein/creatinine quotient, which can be used as a quantitative measure for the kidney damage, is determined.

[2] = system: L-NAME-treated transgenic renin rat (TGR(mRen2)27); assay: All-cause mortality / survival in L-NAME-treated renin transgenic rats; type: in vivo; conditions: for Mortality: all-cause mortality during the study period, daily gavage, 15 animals per group, groups and doses per Table 1; for survival rate / animals died during the study period: finerenone 10 mg/kg od, compound of the formula (X) 1 mg/kg bid, alone or combined; for survival rate: over the study period, placebo survival 60%; for animals died during the study period: study terminated after 40% of placebo animals had died
Source text: as §1, §2, §3, §4
For example, the MR antagonist finerenone, corresponding to the compound of the formula (IV), and the sGC activator, corresponding to the compound of the formula (X), were tested on their own and in combinations in TGR(mRen2)27 renin rats aged 10 to 20 weeks. In addition, the nitrogen monoxide synthase inhibitor L-NAME was administered via the drinking water in a concentration of 30 to 100 mg/l. During the entire experiment, drinking water and feed were available ad libitum to the animals. The substances were administered daily by gavage for 4-10 weeks. Animals treated in the same way but receiving only the solvent for the test substance served as placebo group. In the test series, in addition to placebo (group A), the MR antagonist finerenone (10 mg/kg od) (group B) and the sGC activator corresponding to the compound of the formula (X) (1 mg/kg bid) (group C) on their own and a combination of finerenone (10 mg/kg od)+compound of the formula (X) (1 mg/kg bid) (group D) were administered. In this study, 15 animals were used per group (A, B, C, D) (Table 1):
After 40% of the placebo animals had died—the study was generally terminated once 40-50% of the placebo-treated animals had died, which corresponds to a survival rate of 60-50%—the study was terminated and the survival rates of the individual treatment groups were compared to one another.

SMILES	reduction of proteinuria, measured as protein/creatinine quotient in urine [1] [%]	Urinary protein/creatinine quotient, % change vs placebo [1]	Mortality [2] [%]	survival rate [2] [%]	animals died during the study period [2] [%]
C[C@H]([C@H](C(=O)Nc1cc([C@@H](CC(=O)O)C2CC2)ccc1Cl)c1ccc(Cl)cc1)C(F)(F)F [compound of the formula (X), (3S)-3-(4-chloro-3-{[(2S,3R)-2-(4-chlorophenyl)-4,4,4-trifluoro-3-methylbutanoyl]amino}phenyl)-3-cyclopropylpropanoic acid]	8	−8 + 20%	27	73	27
CCOc1ncc(C)c2c1[C@H](c1ccc(C#N)cc1OC)C(C(N)=O)=C(C)N2 [finerenone, (S)-4-(4-cyano-2-methoxyphenyl)-5-ethoxy-2,8-dimethyl-1,4-dihydro-1,6-naphthyridine-3-carboxamide]	58	−58 + 16%	20	80	20
